Data on one molecule can be found in patent publication US5180729A, “Use of sigma receptor antagonists for treatment of cocaine abuse” (Du Pont Merck Pharmaceutical Company, priority 1991, dated 1993).

The data set relates to cocaine-induced motor activity. Briefly: Cocaine-induced behavior and baseline motor activity, same animal system (haloperidol). To be noted: for Effect on baseline motor activity in the absence of cocaine (in words): same animal system as Ex. No. 504, cocaine-free animals. The format is in vivo. The protocol:
Cocaine was administered to mice or rats and its effect in stimulating motor activity was quantified. The cocaine-stimulated motor activity was used to evaluate the effects of the sigma receptor antagonist in reducing this enhanced motor stimulation, i.e., counteracting the pharmacological effect of cocaine in the animal.

SMILES strings stand for the structures.

In the case of `O=C(CCCN1CCC(O)(c2ccc(Cl)cc2)CC1)c1ccc(F)cc1` [haloperidol], the “Effect on baseline motor activity in the absence of cocaine (in words)” value is listed as “significantly depressed baseline motor activity”. Moreover, the “Effect on cocaine-induced behavior (in words)” value (same animal system as Ex. No. 504) is given as “did not specifically inhibit cocaine-induced behavior”. Besides, the “Effect on baseline motor activity in the absence of cocaine (in words)” value (listed as Haloperidol) is given as “adverse non-selective attenuation of normal motor activity”.
